Target: N. europaea cyt P460 (Nitrosomonas europaea, UniProt Q50927)
Assay: biochemical

Chain of N. europaea cyt P460 (Q50927 27-198): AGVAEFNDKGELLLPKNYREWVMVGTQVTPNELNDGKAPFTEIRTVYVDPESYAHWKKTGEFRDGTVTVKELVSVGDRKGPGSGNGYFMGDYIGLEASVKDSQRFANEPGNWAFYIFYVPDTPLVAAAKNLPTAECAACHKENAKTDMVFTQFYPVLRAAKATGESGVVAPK

`NO` [hydroxylamine] showed a Kd of 9 ± 1 mM.

— paper PMC6457333 (Chemical Science, 2019)
